Results published in US20080176932A1, “Pharmaceutical Compositions Containing Baicalein And Baicalin With Synergistic Effect In Tumor Treatment” (priority 2005, published 2008).
Read-outs that look alike come from different tables or passages of the source.

Legend:
[1] = test system: Murine melanoma cell line B 16; test: Solid tumor transplant model, baicalein and baicalin; assay type: in vivo
Procedure: (§1) C57BL/6 female mice (weight approximately 20 g) were used in this study. Murine melanoma cell line B 16 cells, 2×10^6 tumor cells were implanted s.c. into the armpit of each mice after two passenges in vitro cultured. On the next day after implantation, mice were randomly grouped at 10 per group and received 0.1 ml/10 g weight of the drugs. […] The number of mice of each group was 10. Mice were weighed before and post the treatment. Animals were killed on day 15, and the tumors were removed and weighted.

[2] = test system: L1210 cells; assay type: in vivo; details: 5-FU 10 mg/kg s.c., day 1-10
Procedure: (§2) L1210 cells on the growth phase were injected at 1×10^5 cells via I.P. into BDF1 female mice (weight approximately 20 g). The next day of implantation, mice were grouped, and received an injection of 0.1 ml/10 g weight of the drug. […] The number of mice of each group was 10. Mice were weighed before and after the treatment. Survival time of each mouse was recorded. The results of changes in increasing of life span of mice were used in assessment of response. The increase of life span was determined as; increase of life span rate=(median survival time of treated animals/median survival time of control animals−1)×100%, the data were analyzed by t-test.

[3] = test system: Murine melanoma cell line B 16; test: Solid tumor transplant model, baicalein and scutellarin; assay type: in vivo, C57BL/6 female mice; details: for Final Tumor WT. (g) Mean ± SD / Tumor Growth Inhibition %: day 15
Procedure: as §1, with “0.1ml/10” for “0.1 ml/10”

[4] = test system: L1210 cells; assay type: in vivo; details: day 1-10; for ILS(%) increase of life span: L1210 mice
Procedure: as §2

[5] = test system: human liver cancer cell line HepG2; test: MTT growth inhibition, baicalein and scutellarin single or combination; assay type: cell-based
[6] = test system: Human colon cancer cell line HCT116; test: as above; assay type: cell-based
[7] = test system: Human hung cancer cell line A549; test: as above; assay type: cell-based
[8] = test system: Human gastric cancer cell line MKN28; test: as above; assay type: cell-based
[9] = test system: Human breast cancer cell line MCF-7; test: as above; assay type: cell-based
Procedure: (§3) Cells were seeded onto 96-well plate at 5×10^3 cells/well, and grown in culture medium containing 10% fetal bovine serum (FBS). […] The viable cell growth was determined by MTT assay after 72-h continuous exposure.
(§4) A CI below 1 is an indication of synergy, while a CI equal to 1 represents addition, and a CI above 1 indicates antagonism.

[10] = test system: Human esophagus cancer cell line TE2; test: as above; assay type: cell-based
Procedure: as §3, §4

[11] = test system: Human prostate cancer cell line PC3; test: as above; assay type: cell-based
Procedure: as §3, §4

[12] = test system: Human leukemia cell line HL60; test: as above; assay type: cell-based
[13] = B16 mice, day 15, 5-FU 10 mg/kg s.c., day 1-10
[14] = B16 mice, 5-FU 10 mg/kg s.c., day 1-10
[15] = female, C57BL/6, mouse, in vivo, 15 days
[16] = B16 mice, Sc 25 mg/kg i.p., day 1-10
[17] = B16 mice, Sc 50 mg/kg i.p., day 1-10
[18] = B16 mice, Sc 100 mg/kg i.p., day 1-10
[19] = B16 mice, Sc 200 mg/kg i.p., day 1-10

Q: With `O=c1[nH]cc(F)c(=O)[nH]1` [5-FU, 5-fluorouracil, reference compound] as the molecule, how does the “Final Tumor WT. (g) Mean ± SD” value [1, 13] read?
A: 1.35 ± 0.1 g

Q: What about the “Tumor Growth Inhibition %” value [1, 13] of the same molecule?
A: 38%

Q: What about the “Weight Change %” value [1, 14] of the same molecule?
A: <5%

Q: What about the “Number of mice Surviving through 15 days/total number” value [1, 15] of the same molecule?
A: 10/10

Q: And the “Number of mice Surviving through 15 days/total number” value [2]?
A: 10/10

Q: And the “ILS(%) increase of life span” value ([2]; L1210 mice)?
A: 79%

Q: And the “Final Tumor WT. (g) Mean ± SD” value [3, 14]?
A: 1.35 ± 0.1 g

Q: What about the “Tumor Growth Inhibition %” value [3, 14] of the same molecule?
A: 38%

Q: What about the “Number of mice through 15 days/total number” value [3, 15] of the same molecule?
A: 10/10

Q: What about the “Number of mice Through surviving 15 days/total number” value ([4]; 5-FU 10 mg/kg s.c.) of the same molecule?
A: 10/10

Q: And the “ILS(%) increase of life span” value ([4]; 5-FU 10 mg/kg s.c.)?
A: 79%

Q: Which “Inhibition of cell growth (%)” value ([5]; single dose 2.5 μm) does the source give for `O=C(O)[C@H]1O[C@@H](Oc2cc3oc(-c4ccc(O)cc4)cc(=O)c3c(O)c2O)[C@H](O)[C@@H](O)[C@@H]1O` [Sc, scutellarin] here?
A: 5.2 ± 2.1%

Q: What about the “Inhibition of cell growth (%)” value ([5]; single dose 5 μm) of the same molecule?
A: 7.7 ± 2.3%

Q: And the “Inhibition of cell growth (%)” value ([5]; single dose 10 μm)?
A: 43.35 ± 2.7%

Q: And the “Inhibition of cell growth (%)” value ([5]; single dose 20 μm)?
A: 86.1 ± 2.9%

Q: And the “Inhibition of cell growth (%)” value ([5]; single dose 40 μm)?
A: 88.45 ± 2.5%

Q: And the “Inhibition of cell growth (%)” value ([6]; single dose 2.5 μm)?
A: 10.05 ± 2.5%

Q: And the “Inhibition of cell growth (%)” value ([6]; single dose 5 μm)?
A: 15.1 ± 3%

Q: What about the “Inhibition of cell growth (%)” value ([6]; single dose 10 μm) of the same molecule?
A: 49 ± 2.2%

Q: And the “Inhibition of cell growth (%)” value ([6]; single dose 20 μm)?
A: 83.7 ± 2.2%

Q: And the “Inhibition of cell growth (%)” value ([6]; single dose 40 μm)?
A: 95 ± 2.8%

Q: And the “Inhibition of cell growth (%)” value ([7]; single dose 2.5 μm)?
A: 1 ± 2.1%

Q: And the “Inhibition of cell growth (%)” value ([7]; single dose 5 μm)?
A: 7.7 ± 3.3%

Q: What about the “Inhibition of cell growth (%)” value ([7]; single dose 10 μm) of the same molecule?
A: 32.33 ± 2.7%

Q: And the “Inhibition of cell growth (%)” value ([7]; single dose 20 μm)?
A: 62.65 ± 2.5%

Q: What about the “Inhibition of cell growth (%)” value ([7]; single dose 40 μm) of the same molecule?
A: 91 ± 2.7%

Q: And the “Inhibition of cell growth (%)” value ([8]; single dose 2.5 μm)?
A: 18.83 ± 2.2%

Q: And the “Inhibition of cell growth (%)” value ([8]; single dose 5 μm)?
A: 21.23 ± 3.5%

Q: And the “Inhibition of cell growth (%)” value ([8]; single dose 10 μm)?
A: 31.65 ± 2.8%

Q: What about the “Inhibition of cell growth (%)” value ([8]; single dose 20 μm) of the same molecule?
A: 35.34 ± 2.8%

Q: And the “Inhibition of cell growth (%)” value ([8]; single dose 40 μm)?
A: 75.34 ± 2.7%

Q: And the “Inhibition of cell growth (%)” value ([9]; single dose 2.5 μm)?
A: 5 ± 2.5%

Q: And the “Inhibition of cell growth (%)” value ([9]; single dose 5 μm)?
A: 20.71 ± 3.2%

Q: What about the “Inhibition of cell growth (%)” value ([9]; single dose 10 μm) of the same molecule?
A: 71 ± 2.2%

Q: What about the “Inhibition of cell growth (%)” value ([9]; single dose 20 μm) of the same molecule?
A: 87.5 ± 2.5%

Q: What about the “Inhibition of cell growth (%)” value ([9]; single dose 40 μm) of the same molecule?
A: 95.57 ± 2.2%

Q: What about the “Inhibition of cell growth (%)” value ([10]; single dose 2.5 μm) of the same molecule?
A: 4.7 ± 2.2%

Q: What about the “Inhibition of cell growth (%)” value ([10]; single dose 5 μm) of the same molecule?
A: 12.97 ± 3.1%

Q: And the “Inhibition of cell growth (%)” value ([10]; single dose 10 μm)?
A: 27.1 ± 2.7%

Q: And the “Inhibition of cell growth (%)” value ([10]; single dose 20 μm)?
A: 66 ± 2.9%

Q: What about the “Inhibition of cell growth (%)” value ([10]; single dose 40 μm) of the same molecule?
A: 84.62 ± 2.5%

Q: What about the “Inhibition of cell growth (%)” value ([11]; single dose 2.5 μm) of the same molecule?
A: 2 ± 5%

Q: And the “Inhibition of cell growth (%)” value ([11]; single dose 5 μm)?
A: 18 ± 3%

Q: And the “Inhibition of cell growth (%)” value ([11]; single dose 10 μm)?
A: 39 ± 7%

Q: What about the “Inhibition of cell growth (%)” value ([11]; single dose 20 μm) of the same molecule?
A: 72 ± 9%

Q: And the “Inhibition of cell growth (%)” value ([11]; single dose 40 μm)?
A: 91.8 ± 5%

Q: And the “Inhibition of cell growth (%)” value ([12]; single dose 2.5 μm)?
A: 2.25 ± 2.7%

Q: And the “Inhibition of cell growth (%)” value ([12]; single dose 5 μm)?
A: 8.64 ± 3.2%

Q: And the “Inhibition of cell growth (%)” value ([12]; single dose 10 μm)?
A: 37 ± 2.2%

Q: And the “Inhibition of cell growth (%)” value ([12]; single dose 20 μm)?
A: 64.2 ± 2.7%

Q: What about the “Inhibition of cell growth (%)” value ([12]; single dose 40 μm) of the same molecule?
A: 88.5 ± 2.5%

Q: And the “Final Tumor WT. (g) Mean ± SD” value [3, 16]?
A: 1.81 ± 0.11 g

Q: And the “Tumor Growth Inhibition %” value [3, 16]?
A: 17%

Q: And the “Final Tumor WT. (g) Mean ± SD” value [3, 17]?
A: 1.72 ± 0.08 g

Q: What about the “Tumor Growth Inhibition %” value [3, 17] of the same molecule?
A: 21.1%

Q: What about the “Final Tumor WT. (g) Mean ± SD” value [3, 18] of the same molecule?
A: 1.48 ± 0.12 g

Q: And the “Tumor Growth Inhibition %” value [3, 18]?
A: 32.1%

Q: And the “Final Tumor WT. (g) Mean ± SD” value [3, 19]?
A: 1.22 ± 0.09 g

Q: What about the “Tumor Growth Inhibition %” value [3, 19] of the same molecule?
A: 44%

Q: And the “Number of mice through 15 days/total number” value [3, 16]?
A: 10/10

Q: What about the “Weight Change %” value [3, 16] of the same molecule?
A: <5%

Q: What about the “Number of mice through 15 days/total number” value [3, 17] of the same molecule?
A: 10/10

Q: What about the “Weight Change %” value [3, 17] of the same molecule?
A: <5%

Q: What about the “Number of mice through 15 days/total number” value [3, 18] of the same molecule?
A: 10/10

Q: And the “Weight Change %” value [3, 18]?
A: <5%

Q: What about the “Number of mice through 15 days/total number” value [3, 19] of the same molecule?
A: 10/10

Q: What about the “Weight Change %” value [3, 19] of the same molecule?
A: <5%

Q: And the “ILS(%) increase of life span” value ([4]; Sc 25 mg/kg i.p.)?
A: 11.9%

Q: And the “ILS(%) increase of life span” value ([4]; Sc 50 mg/kg i.p.)?
A: 26%

Q: What about the “ILS(%) increase of life span” value ([4]; Sc 100 mg/kg i.p.) of the same molecule?
A: 37%

Q: And the “ILS(%) increase of life span” value ([4]; Sc 200 mg/kg i.p.)?
A: 51%

Q: What about the “Number of mice Through surviving 15 days/total number” value ([4]; Sc 25 mg/kg i.p.) of the same molecule?
A: 10/10

Q: And the “Number of mice Through surviving 15 days/total number” value ([4]; Sc 50 mg/kg i.p.)?
A: 10/10

Q: What about the “Number of mice Through surviving 15 days/total number” value ([4]; Sc 100 mg/kg i.p.) of the same molecule?
A: 10/10

Q: And the “Number of mice Through surviving 15 days/total number” value ([4]; Sc 200 mg/kg i.p.)?
A: 10/10
